{
  "source": "patent US20050054667A1",
  "about": "“Method of treating or inhibiting anti-arrhythmic events in male human patients” (Solvay Pharmaceuticals GmbH, priority 2003, published 2005)",
  "key": {"[1]": {"tested_on": "human patients", "test": "Clinical safety and tolerability of intravenous tedisamil (TdP, safety issues)", "type": "in vivo", "description": "(§1) Secondary efficacy objectives were to determine the percentage of human patients remaining in sinus rhythm at 2.5 hours after initiation of the intravenous infusion of tedisamil versus placebo; to determine the percentage of human patients remaining in sinus rhythm at 24 hours after initiation of the intravenous infusion of tedisamil versus placebo; to determine the time to conversion after the start of the infusion of tedisamil versus placebo; and to determine the dose- and plasma concentration-response relationships of tedisamil versus placebo. Safety objective: determining the safety and tolerability of tedisamil versus placebo.\nPhysical examination, ECG, 24-hour Holter monitoring, vital signs, laboratory evaluations and adverse events."}, "[2]": {"tested_on": "Patients with Atrial Fibrillation or Flutter", "test": "Phase II clinical study: conversion to NSR, overall (atrial fibrillation or flutter)", "type": "in vivo, human", "conditions": "for Conversion to NSR at any time within 2.5 hrs after start of infusion: Overall (fibrillation + flutter), ITT sample, DC cardioversion excluded", "description": "(§2) This first clinical study in humans was a Multi-Center, Double-Blind, Randomized, Placebo-Controlled, Sequential Ascending Dose Groups Study to evaluate the Efficacy and Safety of Intravenous Tedisamil in the Rapid Conversion to Normal Sinus Rhythm in Patients with Atrial Fibrillation or Flutter. The active ingredient used was tedisamil dihydrochloride. The study was designed as a phase II study and executed in 35 to 40 centers in 3 to 4 countries. Study duration: Screening: up to 48 hours; treatment (in-patient): single 30-minute infusion; safety follow up: 24 hours (in-patient) with continuous telemetry and 28 day safety follow up.\nas §1\n(§3) The following methodology for the study in humans was applied: A multi-center, double-blind, randomized, placebo-controlled, sequential ascending dose groups study to evaluate the efficacy and safety of intravenous tedisamil versus placebo. The study drug was infused over 30 minutes, receiving half the dose within 10 minutes and half the dose within the remaining 20 minutes The first patient group received 0.4 mg/kg of body weight, infused as 0.2 mg/kg of body weight within 10 minutes, continued with 0.2 mg/kg of body weight infused within 20 minutes. The next higher dose 0.6 mg/kg of body weight (0.3 mg/kg of body weight infused over 10 min, continued with 0.3 mg/kg of body weight infused over 20 minutes) was only administered after the initial dose has been assessed (blinded) and found to be safe. A third stage may be added with a higher dose. Tedisamil blood concentrations were assessed during the infusion (at 10 and 30 minutes), at conversion to normal sinus rhythm, at recurrence and 24 hours after start of infusion.\n(§4) The criteria for patient inclusion in the study was atrial fibrillation or flutter with a duration of more than 3 hours and less than 48 hours, occurring as a first or recurrent episode.\n(§5) • Tedisamil (0.4 mg/kg body weight) • Tedisamil (0.6 mg/kg body weight) Both dosages were given as an intravenous regimen. Reference Therapy, Dose and Mode of Administration:\n(§6) The total infusion time is 30 minutes, with half the dose infused within 10 minutes, and half the dose infused within the remaining 20 minutes.\n(§7) Primary efficacy: the percentage of human patients converted to normal sinus rhythm (for at least 60 seconds) at any time within 2.5 hours after the initiation of the infusion of study drug.\n(§8) All efficacy variables were evaluated separately for human patients with atrial fibrillation and human patients with atrial flutter. Percentages of conversion were compared among treatment groups using a logistic regression model with factors for treatment group and center. Times to conversion were compared among treatment groups using a Cox proportional hazards model with factors for treatment group and center. Dose-response and concentration-response relationships were examined using descriptive statistics."}, "[3]": {"tested_on": "human patients with atrial flutter", "test": "Phase II clinical study: conversion of atrial flutter to normal sinus rhythm (NSR) by intravenous tedisamil", "type": "in vivo", "conditions": "ITT sample, DC cardioversion excluded", "description": "as §2, §1, §3, §4\n• Tedisamil (0.4 mg/kg body weight) • Tedisamil (0.6 mg/kg body weight) Both dosages were given as an intravenous regimen. Reference Therapy, Dose and Mode of Administration: […]\nAll efficacy variables were evaluated separately for human patients with atrial fibrillation and human patients with atrial flutter. […]"}, "[4]": {"tested_on": "Subjects with Recent Onset Atrial Fibrillation or Flutter", "test": "Phase III clinical study: rapid conversion to NSR by intravenous tedisamil sesquifumarate", "type": "in vivo, human", "conditions": "active ingredient tedisamil sesquifumarate", "description": "This second clinical study in humans was a Multi-Center, Double-Blind, Randomized, Placebo-Controlled, Parallel Design Study to evaluate the Efficacy and Safety of Intravenous Tedisamil Sesquifumarate in the Rapid Conversion to Normal Sinus Rhythm in Subjects with Recent Onset Atrial Fibrillation or Flutter.\nThe active ingredient used was tedisamil sesqifumarate. […] Study duration: Screening: up to 48 hours; treatment (in-patient): single 30-minute infusion; safety follow up: 24 hours (in-patient) with continuous telemetry and 28 day safety follow up. […]"}, "[5]": {"tested_on": "human patients with atrial fibrillation", "test": "Phase II clinical study: conversion of recent onset atrial fibrillation to normal sinus rhythm (NSR) by intravenous tedisamil", "type": "in vivo", "conditions": "ITT sample, DC cardioversion excluded", "description": "as §2, §1, §3, §4, §5, §6, §7, §8"}, "[6]": {"conditions": "female, 0.4 mg/kg i.v. 30-min infusion"}, "[7]": {"conditions": "female, 0.6 mg/kg i.v. 30-min infusion"}, "[8]": {"conditions": "male, 0.4 mg/kg i.v. 30-min infusion"}, "[9]": {"conditions": "male, 0.6 mg/kg i.v. 30-min infusion"}},
  "data": [
    {"smiles": "C1CCC2(C1)C1CN(CC3CC3)CC2CN(CC2CC2)C1", "note": "[Tedisamil, N,N′-dicyclopropyl-methyl-9,9-tetramethylen-3,7-diazabicyclo[3,3,1]nonane]", "values": [
      {"measurement": "Observed TdP (Torsade de Point), distribution by gender", "setting": "[1]; 30 min infusion regimen", "value": "Almost all observed TdP (Torsade de Point) in 30 min regimen were in female human patients"},
      {"measurement": "Safety issues, male vs female patients", "setting": "[1]; First (Phase II) study", "value": "fewer safety issues than female human patients"},
      {"measurement": "TdP in male human patients", "setting": "[1]; high dosage on 0.72 in 3114 study", "value": "Only one human patient showed TdP"},
      {"measurement": "Effect of extension of infusion on conversion rates", "setting": "[2]; Extension of infusion beyond the times indicated (30 minutes)", "value": "did not produce higher conversion rates"},
      {"measurement": "Gender difference related to efficacy (conversion rate, male vs female patients)", "setting": "[2]; First (Phase II) study, active ingredient tedisamil dihydrochloride", "value": "higher conversion rate compared to women"},
      {"measurement": "Conversion to NSR at any time within 2.5 hrs after start of infusion", "setting": "[2]; [6]", "value": "6/19 (31.6%)"},
      {"measurement": "Conversion to NSR at any time within 2.5 hrs after start of infusion", "setting": "[2]; [7]", "value": "8/22 (36.4%)"},
      {"measurement": "Conversion to NSR at any time within 2.5 hrs after start of infusion", "setting": "[2]; [8]", "value": "19/42 (45.2%)"},
      {"measurement": "Conversion to NSR at any time within 2.5 hrs after start of infusion", "setting": "[2]; [9]", "value": "19/31 (61.3%)"},
      {"measurement": "Conversion to NSR at any time within 2.5 hrs after start of infusion (patients converted/total)", "setting": "[3]; female, 0.4 mg/kg i.v. 30-min infusion, percentage not given", "value": "0/2"},
      {"measurement": "Conversion to NSR at any time within 2.5 hrs after start of infusion", "setting": "[3]; [7]", "value": "2/6 (33.3%)"},
      {"measurement": "Conversion to NSR at any time within 2.5 hrs after start of infusion", "setting": "[3]; [8]", "value": "1/7 (14.3%)"},
      {"measurement": "Conversion to NSR at any time within 2.5 hrs after start of infusion", "setting": "[3]; [9]", "value": "1/5 (20.0%)"},
      {"measurement": "Gender difference related to efficacy (conversion rate, male vs female patients)", "setting": "[4]", "value": "higher conversion rate compared to women"},
      {"measurement": "Conversion to NSR at any time within 2.5 hrs after start of infusion", "setting": "[5]; [6]", "value": "6/17 (35.3%)"},
      {"measurement": "Conversion to NSR at any time within 2.5 hrs after start of infusion", "setting": "[5]; [7]", "value": "6/16 (37.5%)"},
      {"measurement": "Conversion to NSR at any time within 2.5 hrs after start of infusion", "setting": "[5]; female, age <65 yrs, 0.4 mg/kg i.v.", "value": "2/5 (40.0%)"},
      {"measurement": "Conversion to NSR at any time within 2.5 hrs after start of infusion", "setting": "[5]; female, age <65 yrs, 0.6 mg/kg i.v.", "value": "1/3 (33.3%)"},
      {"measurement": "Conversion to NSR at any time within 2.5 hrs after start of infusion", "setting": "[5]; female, age >=65 yrs, 0.4 mg/kg i.v.", "value": "4/12 (33.3%)"},
      {"measurement": "Conversion to NSR at any time within 2.5 hrs after start of infusion", "setting": "[5]; female, age >=65 yrs, 0.6 mg/kg i.v.", "value": "5/13 (38.5%)"},
      {"measurement": "Conversion to NSR at any time within 2.5 hrs after start of infusion", "setting": "[5]; [8]", "value": "18/35 (51.4%)"},
      {"measurement": "Conversion to NSR at any time within 2.5 hrs after start of infusion", "setting": "[5]; [9]", "value": "18/26 (69.2%)"},
      {"measurement": "Conversion to NSR at any time within 2.5 hrs after start of infusion", "setting": "[5]; male, age <65 yrs, 0.4 mg/kg i.v.", "value": "10/20 (50.0%)"},
      {"measurement": "Conversion to NSR at any time within 2.5 hrs after start of infusion", "setting": "[5]; male, age <65 yrs, 0.6 mg/kg i.v.", "value": "13/18 (72.2%)"},
      {"measurement": "Conversion to NSR at any time within 2.5 hrs after start of infusion", "setting": "[5]; male, age >=65 yrs, 0.4 mg/kg i.v.", "value": "8/15 (51.4%)"},
      {"measurement": "Conversion to NSR at any time within 2.5 hrs after start of infusion", "setting": "[5]; male, age >=65 yrs, 0.6 mg/kg i.v.", "value": "5/8 (62.5%)"}
    ]}
  ]
}
